From patent US10092537B2, “Use for PAI-1 inhibitor” (RENASCIENCE CO., LTD., priority 2013, dated 2018)
Where a name gives a salt, the structure may show the parent alone.

Tests used:
human PAI-1 [1] = target: T1, human PAI-1 (Homo sapiens, UniProt P05121); assay: Measurement of PAI-1 inhibitory activity of compound group 2 (t-PA, S-2288 chromogenic substrate); conditions: PAI-1 activity of the system without compound after 30 minutes taken as 100%
Description: Subsequently, human-derived tissue plasminogen activator (t-PA) (manufactured by American Diagnostica, Inc. (USA); the same applies hereinafter) adjusted to 0.3 pmol/μL was added thereto, and the mixture was further incubated at 37° C. for 15 minutes.

human PAI-1 [2] = target: T1, human PAI-1; assay: Measurement of PAI-1 inhibitory activity of compound group 3 (t-PA, S-2288 chromogenic substrate; Table 4)
Description: Subsequently, tissue plasminogen activator (t-PA) (manufactured by American Diagnostica, Inc. (USA); the same applies hereinafter) adjusted to 0.3 pmol/μL was added thereto, and further incubated at 37° C. for 15 minutes.

human PAI-1 [3] = target: T1, human PAI-1; assay: Measurement of PAI-1 inhibitory activity of compound group 1 (t-PA, S-2288 chromogenic substrate); conditions: read-out: PAI-1 activity %
Description: Subsequently, human-derived tissue plasminogen activator (t-PA) (manufactured by American Diagnostica, Inc. (USA); the same applies hereinafter) adjusted to 0.35 pmol/μL was added thereto, and the mixture was further incubated at 37° C. for 15 minutes.

human PAI-1 [4] = target: T1, human PAI-1; assay: Measurement of PAI-1 inhibitory activity of compound group 1 (t-PA, Spectrozyme t-PA chromogenic substrate); conditions: for activity at 2.5 µM / activity at 10 µM: read-out: PAI-1 activity %; for PAI-1 activity %: PAI-1 activity of the system without compound after 120 minutes taken as 100%

T1 sequence (P05121 24-402): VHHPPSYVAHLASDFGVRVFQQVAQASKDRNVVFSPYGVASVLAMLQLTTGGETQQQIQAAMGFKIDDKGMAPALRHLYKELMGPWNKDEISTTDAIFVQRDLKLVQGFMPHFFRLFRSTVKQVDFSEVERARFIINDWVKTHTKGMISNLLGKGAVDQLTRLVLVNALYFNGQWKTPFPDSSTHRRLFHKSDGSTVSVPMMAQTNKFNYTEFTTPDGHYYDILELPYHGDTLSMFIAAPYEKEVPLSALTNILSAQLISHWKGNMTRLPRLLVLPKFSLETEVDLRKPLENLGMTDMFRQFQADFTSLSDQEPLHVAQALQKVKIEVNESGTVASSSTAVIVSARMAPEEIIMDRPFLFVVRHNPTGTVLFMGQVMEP

| activity at 20 µM (human PAI-1 [3]) | activity at 50 µM (human PAI-1 [3]) | activity at 2.5 µM (human PAI-1 [4]) | activity at 10 µM (human PAI-1 [4]) | Molecule | further results |
| --- | --- | --- | --- | --- | --- |
| – | – | – | – | 5-chloro-2-({[4-(diphenylmethyl)piperazin-1-yl]carbonyl}amino)benzoic acid hydrochloride [Example 75] | PAI-1 activity % (human PAI-1 [1]; compound 20 μM): 91.3%; PAI-1 activity % (human PAI-1 [1]; compound 50 μM): 13.3%; PAI-1 activity % (human PAI-1 [2]; compound concentration 20 μM): 46.1% |
| – | – | – | – | 5-chloro-2-({[4-(pyrrolidin-1-yl)phenyl]carbonyl}amino)benzoic acid hydrochloride [Example 83] | PAI-1 activity % (human PAI-1 [1]; compound 20 μM): 99.8%; PAI-1 activity % (human PAI-1 [1]; compound 50 μM): 77.8% |
| 95.5% | 48.9% | – | – | O=C(CCCNC(=O)c1cccc(-c2ccoc2)c1)Nc1ccc(Cl)cc1C(=O)O [Example 1, 5-chloro-2-{[4-({[3-(furan-3-yl)phenyl]carbonyl}amino)butanoyl]amino}benzoic acid] | – |
| 63.7% | 19.6% | – | – | O=C(Cc1cccc(-c2ccoc2)c1)Nc1ccc(Cl)cc1C(=O)O [Example 3, 5-chloro-2-({[3-(furan-3-yl)phenyl]acetyl}amino)benzoic acid] | – |
| 14.7% | 6.1% | 46.4% | 0.3% | Cc1sc(NC(=O)c2cccc(-c3ccoc3)c2)c(C(=O)O)c1-c1ccccc1 [Example 5, 2-({[3-(furan-3-yl)phenyl]carbonyl}amino)-5-methyl-4-phenylthiophene-3-carboxylic acid] | – |
| 51.4% | 22.2% | – | – | O=C(O)c1cc(Cl)ccc1NC(=O)c1ccccc1-c1ccccc1 [Example 6, 2-[(biphenyl-2-ylcarbonyl)amino]-5-chlorobenzoic acid] | – |
| 54.2% | 7.4% | 99.8% | 0.4% | O=C(Nc1ccc(Cl)cc1C(=O)O)c1ccc(-c2cccs2)cc1 [Example 7, 5-chloro-2-({[4-(thiophen-2-yl)phenyl]carbonyl}amino)benzoic acid] | – |
| – | – | 100% | 28.5% | O=C(Nc1ccc(Cl)cc1C(=O)[O-])c1cccc(-c2ccncc2)c1.[Na+] [Example 8, sodium 5-chloro-2-({[3-(pyridin-4-yl)phenyl]carbonyl}amino)benzoate] | PAI-1 activity % (human PAI-1 [1]; compound 50 μM): 12.9%; PAI-1 activity % (human PAI-1 [1]; compound 100 μM): 9.3%; PAI-1 activity % (human PAI-1 [2]; compound concentration 20 μM): 95.6%; PAI-1 activity % (human PAI-1 [2]; compound concentration 50 μM): 12.4% |
| 98.1% | 53.2% | – | – | O=C(O)c1cc(Cl)ccc1NC(=O)[C@@H]1CCCN1C(=O)Cc1cccc(-c2ccoc2)c1 [Example 9, 5-chloro-2-[(1-{[3-(furan-3-yl)phenyl]acetyl}-L-prolyl)amino]benzoic acid] | – |
| 73% | 38.3% | – | – | O=C(O)c1cc(Cl)ccc1NC(=O)[C@@H]1CCCN1C(=O)c1cccc(-c2ccoc2)c1 [Example 10, 5-chloro-2-[(-{[3-(furan-3-yl)phenyl]carbonyl}-L-prolyl)amino]benzoic acid] | – |
| 57.7% | 15.7% | – | – | O=C(O)c1cc(Cl)ccc1NC(=O)C1CCCN(C(=O)Cc2cccc(-c3ccoc3)c2)C1 (stereo not shown) [Example 12, 5-chloro-2-{[(1-{[3-(furan-3-yl)phenyl]acetyl}piperidin-3-yl)carbonyl]amino}benzoic acid] | – |
| 22.1% | 12.9% | 87.4% | 4.3% | Cn1cc(C(=O)C(=O)Nc2ccc(Cl)cc2C(=O)O)c2cc(-c3ccoc3)ccc21 [Example 14, 5-chloro-2-({[5-(furan-3-yl)-1-methyl-1H-indol-3-yl](oxo)acetyl}amino)benzoic acid] | – |
| – | – | – | – | CC(C(=O)Nc1ccc(Cl)cc1C(=O)O)(c1ccccc1)c1ccccc1 [Example 39] | PAI-1 activity % (human PAI-1 [1]; compound 100 μM): 36.1%; PAI-1 activity % (human PAI-1 [2]; compound concentration 20 μM): 64.3%; PAI-1 activity % (human PAI-1 [2]; compound concentration 50 μM): 6.9%; PAI-1 activity % (human PAI-1 [4]; compound 2.5 μM): 88.6%; PAI-1 activity % (human PAI-1 [4]; compound 10 μM): 22.1% |
| – | – | – | – | O=C(COc1cccc(-c2ccccc2)c1)Nc1ccc(-c2ccccc2)cc1C(=O)O [Example 45] | PAI-1 activity % (human PAI-1 [1]; compound 20 μM): 79.6%; PAI-1 activity % (human PAI-1 [1]; compound 50 μM): 7.7%; PAI-1 activity % (human PAI-1 [2]; compound concentration 20 μM): 47.8%; PAI-1 activity % (human PAI-1 [2]; compound concentration 50 μM): 8.4%; PAI-1 activity % (human PAI-1 [4]; compound 2.5 μM): 76.9%; PAI-1 activity % (human PAI-1 [4]; compound 10 μM): 0.9% |
| – | – | – | – | O=C(COc1ccc(-c2ccccc2)cc1)Nc1ccc(-c2ccoc2)cc1C(=O)O [Example 46] | PAI-1 activity % (human PAI-1 [1]; compound 20 μM): 85.4%; PAI-1 activity % (human PAI-1 [1]; compound 50 μM): 8.4%; PAI-1 activity % (human PAI-1 [2]; compound concentration 20 μM): 83.9%; PAI-1 activity % (human PAI-1 [2]; compound concentration 50 μM): 47.3%; PAI-1 activity % (human PAI-1 [4]; compound 2.5 μM): 69.9%; PAI-1 activity % (human PAI-1 [4]; compound 10 μM): 0.4% |
| – | – | 21.3% | 0.3% | O=C(Nc1ccc(Cl)cc1C(=O)[O-])c1cccc(-c2cnc3ccccc3c2)c1.[Na+] [Example 63, sodium 5-chloro-2-({[3-(quinolin-3-yl)phenyl]carbonyl}amino)benzoate] | PAI-1 activity % (human PAI-1 [1]; compound 20 μM): 78.2%; PAI-1 activity % (human PAI-1 [1]; compound 50 μM): 21.4%; PAI-1 activity % (human PAI-1 [2]; compound concentration 20 μM): 64.3%; PAI-1 activity % (human PAI-1 [2]; compound concentration 50 μM): 10.6% |

| activity at 20 µM (human PAI-1 [3]) | activity at 50 µM (human PAI-1 [3]) | activity at 2.5 µM (human PAI-1 [4]) | activity at 10 µM (human PAI-1 [4]) | Molecule | further results |
| --- | --- | --- | --- | --- | --- |
| – | – | 74.3% | 0.7% | O=C(Nc1ccc(Cl)cc1C(=O)[O-])c1cccc(-c2cncc3ccccc23)c1.[Na+] [Example 64, sodium 5-chloro-2-({[3-(isoquinolin-4-yl)phenyl]carbonyl}amino)benzoate] | PAI-1 activity % (human PAI-1 [1]; compound 20 μM): 62.7%; PAI-1 activity % (human PAI-1 [1]; compound 50 μM): 7.5%; PAI-1 activity % (human PAI-1 [2]; compound concentration 20 μM): 71.6%; PAI-1 activity % (human PAI-1 [2]; compound concentration 50 μM): 19.2% |
| – | – | 71.7% | 0.4% | O=C(Nc1ccc(Cl)cc1C(=O)[O-])c1cccc(-c2ccc3ncccc3c2)c1.[Na+] [Example 65, sodium 5-chloro-2-({[3-(quinolin-6-yl)phenyl]carbonyl}amino)benzoate] | PAI-1 activity % (human PAI-1 [1]; compound 20 μM): 76.9%; PAI-1 activity % (human PAI-1 [1]; compound 50 μM): 10.8%; PAI-1 activity % (human PAI-1 [2]; compound concentration 20 μM): 86.0%; PAI-1 activity % (human PAI-1 [2]; compound concentration 50 μM): 25.4% |
| – | – | 91.3% | 1.5% | O=C(Nc1ccc(Cl)cc1-c1nnn[nH]1)c1cccc(-c2cccc3cccnc23)c1 [Example 102, N-[4-chloro-2-(1H-tetrazol-5-yl)phenyl]-3-(quinolin-8-yl)benzamide] | – |
| – | – | 92.3% | 34.2% | O=C(/C=C/c1cccc(-c2cccnc2)c1)Nc1ccc(Cl)cc1C(=O)O [Example 103, sodium 5-chloro-2-({(2E)-3-[3-(pyridin-3-yl)phenyl]prop-2-enoyl}amino)benzoate] | – |
| – | – | 84.8% | 0.9% | O=C(Nc1ccc(Cl)cc1C(=O)O)c1ccc(-c2ccc(F)cc2)s1 [Example 104, 5-chloro-2-({[5-(4-fluorophenyl)thiophen-2-yl]carbonyl}amino)benzoic acid] | – |
| – | – | 89.9% | 23.5% | O=C(Nc1ccc(Cl)cc1C(=O)O)c1ccc(-c2ccccc2)o1 [Example 105, 5-chloro-2-{[(5-phenylfuran-2-yl)carbonyl]amino}benzoic acid] | – |
| – | – | 88.4% | 26.3% | O=C(Nc1ccc(C23CC4CC(CC(C4)C2)C3)cc1)C(=O)Nc1ccc(Cl)cc1C(=O)O [Example 106, sodium 2-[({[4-(adamantan-1-yl)phenyl]amino}(oxo)acetyl)amino]-5-chlorobenzoate] | – |
| – | – | 100% | 6.7% | O=C(O)c1cc(Cl)ccc1NC(=O)c1cc(-c2ccccc2)nc2ccccc12 [Example 107, sodium 5-chloro-2-{[(2-phenylquinolin-4-yl)carbonyl]amino}benzoate] | – |
| 44% | 11% | 100% | 12.7% | CC(C)(C)c1ccc(C(=O)Nc2ccc(Cl)cc2C(=O)O)cc1 [Known compound (1), 2-{[(4-tert-butylphenyl)carbonyl]amino}-5-chlorobenzoic acid, reference compound] | – |
| 41.8% | 8% | 70.7% | 0.2% | O=C(Nc1ccc(Cl)cc1C(=O)O)c1ccc(-c2ccccc2)cc1 [Known compound (2), 2-[(biphenyl-4-ylcarbonyl)amino]-5-chlorobenzoic acid, reference compound] | – |
| – | – | 36.3% | 0.3% | O=C(COc1ccc(C2CCCCC2)cc1)Nc1ccc(Cl)cc1C(=O)O [Known compound (3), 5-chloro-2-{[(4-cyclohexylphenoxy)acetyl]amino} benzoic acid, reference compound] | – |
| – | – | 79.6% | 8.1% | O=C(Nc1ccc(Cl)cc1C(=O)O)c1ccc(C(=O)c2ccccc2)cc1 [Known compound (4), 5-chloro-2-{[(4-(phenylcarbonyl)phenyl]carbonyl}amino} benzoic acid, reference compound] | – |
| – | – | 98.5% | 18.8% | O=C(Nc1ccc(Cl)cc1C(=O)O)c1ccc2c(c1)CCCC2 [Known compound (5), 5-chloro-2-[(5,6,7,8-tetrahydronaphthalene-2-ylcarbonyl)amino] benzoic acid, reference compound] | – |
| – | – | 85% | 37.4% | O=C(O)c1cc(Cl)ccc1NC(=O)C(c1ccccc1)c1ccccc1 [Known compound (6), 5-chloro-2-[(diphenylacetyl)amino] benzoic acid, reference compound] | – |
| – | – | 100% | 3.7% | O=C(Nc1ccc(Cl)cc1C(=O)O)c1ccc(-n2cccc2)cc1 [Salt of Known compound (7), 5-chloro-2-({[4-(1H-pyrrol-1-yl)phenyl]carbonyl}amino)benzoic acid hydrochloride, reference compound] | – |
